Experimental data as given in paper PMC11312813, “An Optimized Peptide Antagonist of CXCR4 Limits Survival of BCR–ABL1-Transformed Cells in Philadelphia-Chromosome-Positive B-Cell Acute Lymphoblastic Leukemia” (International Journal of Molecular Sciences, 2024).
Structures can show the parent of a compound that is named as a salt.

Legend:
[1] = test system: CXCR4; experiment: Anti-CXCR4 antibody (clone 12G5) competition assay in SupB15 cells; assay type: binding, human; conditions: increasing concentrations (1 nM to 10 µM), n = 2–3
Experimental: (§1) An anti-CXCR4 competition assay was conducted as previously described. […] Afterward, the cells were washed to remove unbound inhibitors and antibody, and measured via FACS for the fluorescence signal of the bound antibody. The fluorescence signal corresponding to only antibody (no inhibitor) was considered to be 100% antibody binding.

[2] = test system: TKO-EV cells (untransformed mouse BM pro-B cells); experiment: Real-time cell growth analysis by IncuCyte, untransformed TKO-EV cells; conditions: 1, 5 and 10 µM, 96 h; n = 3
Experimental: A flat-bottom 96-well plate was coated with 0.01% poly-L ornithine (#P4957, Sigma-Aldrich, Hamburg, Germany) for 1 h at room temperature (RT). BCR–ABL1, SupB15, and 697 cells were counted as 0.5 × 10^5 cells/well, while TKO-BCR–ABL1 and TKO-EV cells as 1 × 10^5 cells/well, which were labeled with IncuCyte Cytotox Red dye (#4632, Sartorius, Ulm, Germany) as per the manufacturer’s protocol. The cells were plated in 100 μL complete medium. […] Plate was prewarmed at 37 °C for 30 min prior to placing in the IncuCyte chamber. Scanning was conducted every two hours for total of 4 days. Images were acquired using a 20X objective in phase contrast and fluorescence mode at 4 images/well and analyzed using the cell-by-cell analysis module of IncuCyte software version 2020B (Essen Bioscience, Ann Arbor, MI, USA).

[3] = test system: CXCR4; conditions: ref [14],[17]; cited from earlier work
[4] = test system: CXCR4; experiment: CXCL12-driven calcium flux in SupB15 cells; assay type: cell-based; conditions: 1 µM, 10 min pre-treatment, 100 ng/mL human CXCL12; n = 3
Experimental: Ca^2+ signaling was analyzed as described previously. Briefly, SupB15 and 697 cells were collected at 1 × 10^6 cells/treatment and loaded with calcium-sensitive dye Indo-1 AM (#I1223, Invitrogen) and 0.5 mg/mL of pluronic F-127 (#P3000MP, Invitrogen) in their respective media supplemented with 1% FBS at 37 °C for 45 min. Cells were then washed and treated with the inhibitors for 10 min at 37 °C. Baseline signal for calcium was measured for 30 s via flow cytometry, followed by stimulation with 100 ng/mL human CXCL12. The area under the curve (AUC) of each calcium flux plot was determined using FlowJo. The AUC of the water control (solvent for CXCL12) was subtracted from each treatment to obtain the correct estimation of the calcium signal upon CXCL12 stimulation.

[5] = test system: BCR–ABL1-transformed mouse B cells; experiment: Real-time cell growth analysis by IncuCyte (GFP+ cell enrichment); assay type: cell-based; conditions: over 96 h
Experimental: A flat-bottom 96-well plate was coated with 0.01% poly-L ornithine (#P4957, Sigma-Aldrich, Hamburg, Germany) for 1 h at room temperature (RT). […] The cells were plated in 100 μL complete medium. […] Plate was prewarmed at 37 °C for 30 min prior to placing in the IncuCyte chamber. Scanning was conducted every two hours for total of 4 days.

[6] = test system: JNK1/2 phosphorylation; experiment: Western blot, basal JNK1/2 phosphorylation in BCR–ABL1 cells; assay type: cell-based, mouse; conditions: 10 µM, no CXCL12, 5 min; n = 3
Experimental: BCR–ABL1 cells were collected as 5 × 10^6 cells/500 μL complete media and treated either with DMSO or different inhibitors in the absence and presence of 100 ng/mL mouse CXCL12 for 5, 15, and 30 min at 37 °C. Cells were then immediately transferred onto ice to stop the reaction and washed with ice-cold PBS. […] For each treatment, 15 μL of cell extract was mixed with 5 μL of 4X Laemmli buffer (reducing), boiled at 95 °C for 10 min, and run on 10% SDS-PAGE. Gels were wet-transferred to PVDF membranes (Millipore, Burlington, MA, USA) and stained with 0.1% ponceau-S solution to check for efficient blotting. The membranes were blocked with 3% BSA solution and incubated with primary antibodies at 4 °C overnight. The next day, primary antibodies were washed, and membranes were probed with horseradish peroxidase (HRP)-conjugated secondary antibodies at RT for 2 h. After washing, the blots were developed using Immobilon ECL Ultra Western HRP Substrate (#WBULS0500, Millipore), and images were acquired with a Fusion SL gel imaging system (Vilber Lourmat, Eberhardzell, Germany).

[7] = test system: CXCR4; experiment: Anti-CXCR4 antibody (clone L276F12) competition assay in BCR–ABL1-transformed mouse B cells; assay type: binding; conditions: 2 h at 4 °C, FACS, n = 3; for Anti-CXCR4 antibody binding to CXCR4: serially diluted 10 µM to 1 nM
Experimental: as §1

[8] = test system: caspase 3/7; experiment: Caspase-Glo 3/7 activation assay in BCR–ABL1 cells; assay type: cell-based, mouse; conditions: 10 µM, 24 and 48 h; n = 3
Experimental: BCR–ABL1 cells were plated at 0.5 × 10^5 cells/well of a 96-well plate in 100 μL of complete media and treated with DMSO or various inhibitors. At specific time points (24, 48 and 72 h), activation of caspases was measured with a Caspase-Glo® 3/7 Assay (#G8090) and Caspase-Glo® 8 Assay (#G8200, Promega, Madison, WI, USA) following the manufacturer’s instructions.

[9] = test system: 697 cells; experiment: Flow cytometric cell survival analysis, 697; assay type: cell-based, human; conditions: 10 µM; n = 3
Experimental: Cells treated with either solvent control DMSO or different concentrations of inhibitors for different time points were collected and washed with ice-cold PBS. Cells were then stained with efluor 450-labeled fixable viability dye (FVD, #65-0863-14, eBioscience, San Diego, CA, USA) at 1:1000 dilution at 4 °C or using 50 μg/mL propidium iodide (PI, #P3566, Thermo Fisher, Dreieich, Germany) solution at RT for 15 min in the dark. After washing, labeled cells were resuspended in 100 μL of PBS and acquired using LSR-Fortessa (BD Bioscience, Heidelberg, Germany). FACS data were analyzed with FlowJo software version 10.0.

[10] = test system: WT mouse BM-derived B cells; experiment: Real-time cell growth, normal WT mouse BM-derived B cells; assay type: cell-based; conditions: 10 µM JM#170, 10 µM AMD3100, 1 µM Imatinib; 96 h; n = 2
Experimental: (§2) The cells were plated in 100 μL complete medium.

[11] = test system: 697 cells; experiment: Real-time cell growth by IncuCyte, 697; assay type: cell-based, human; conditions: 10 µM, 96 h; n = 3
Experimental: as §2

[12] = test system: Imatinib-resistant Ph+ ALL primary xenograft cells; experiment: Real-time cell growth by IncuCyte, primary Ph+ ALL xenograft cells; assay type: cell-based, human; conditions: 10 µM, 6 days; n = 2
Experimental: Animals showing clinical symptoms of leukemia or with >75% leukemic blasts in blood were sacrificed, and total splenic cells were isolated and frozen for future use.
For Ph^+ ALL cells isolated from the xenografted NSG mice, frozen cells were thawed and cultured in MEM-alpha (Gibco) media supplemented with 20% FBS and 100 units/mL of penicillin/streptomycin for 5–16 h in a 5% CO2 incubator. Next, the cells were overlaid on 10 mL Ficoll-Paque™PLUS (#17144003, Cytiva, Freiburg, Germany) in 50 mL tubes and centrifuged at 400 g without break for 10 min at RT. The cells were collected from the interface of Ficoll and media and washed once with PBS. Viable cells were counted and plated into previously coated 48-well plates at 4.25 × 10^5 cells/well in 250 μL of media with or without the inhibitors. Scanning was conducted every two hours for total of 6 days in phase contrast mode and analyzed using the cell-by-cell analysis module of IncuCyte software version 2020B (Essen Bioscience).

[13] = test system: SupB15 cells; experiment: Real-time cell growth by IncuCyte, SupB15; assay type: cell-based, human; conditions: 10 µM, 96 h; n = 3
Experimental: as §2

Compound | 12G5 antibody binding to CXCR4 [1] | Survival/growth of TKO-EV cells [2] | CXCL12-induced calcium signaling [3] | CXCL12-induced calcium flux, SupB15 [4] | GFP enrichment (BCR–ABL1 cell growth) vs DMSO ([5]; 5 µM) | GFP enrichment (BCR–ABL1 cell growth) vs DMSO ([5]; 10 µM, mean ± SEM, n = 4–5) | Basal JNK phosphorylation vs DMSO [6] | Concentration effective in inhibiting antibody binding to CXCR4 [7] | Anti-CXCR4 antibody binding to CXCR4 [7] | Caspase 3/7 activation vs DMSO [8] | 697 cell survival vs DMSO [9] | Growth of normal WT mouse BM-derived B cells [10] | 697 cell growth vs DMSO [11] | Growth of Ph+ ALL xenograft cells vs DMSO [12] | SupB15 cell growth vs DMSO [13]
c1cc(CN2CCCNCCNCCCNCC2)ccc1CN1CCCNCCNCCCNCC1 [AMD3100, AMD3100 octahydrochloride hydrate, reference compound] | significantly inhibited 12G5 binding | neither JM#170 nor AMD3100 had any effect | block the intracellular calcium response | completely blocked the calcium flux | also detectable | only distinct at later time points | such upregulation was not observed | ~ 1 μM | significantly inhibited the antibody binding | did not induce any caspase activation |  |  |  |  | 
ILRWSRK * (Pal)-NH2 [JM#170, lipid-conjugated truncated version of EPI-X4, CXCR4 antagonist] | significantly inhibited 12G5 binding |  | block CXCL12-induced calcium signaling | completely blocked the calcium flux |  | significant reduction in GFP enrichment | transiently upregulated basal JNK phosphorylation | ~ 10 nM | significantly inhibited the antibody binding | significant increase in caspase 3/7 activation | no effect on the survival of these cells | remained inactive against the WT B cells | no effect on the 697 cells | significant growth inhibitory effect | significantly reduced SupB15 cell growth
